This passage reports IC50 results from ChEMBL document CHEMBL5537173, “Emerging Drug Targets for Antimalarial Drug Discovery: Validation and Insights into Molecular Mechanisms of Function” (J Med Chem, 2024).

Test [1] concerns the target cGMP-dependent protein kinase (Plasmodium falciparum, UniProt W7JX98). Put plainly: Inhibition of Plasmodium falciparum NF54 PKG.
A further test has as its target Plasmepsin V (Plasmodium vivax, UniProt A0A0H4FQ60). Nature of the test: Inhibition of recombinant Plasmodium vivax Plasmepsin V.
Test [2] in a line: Inhibition of Plasmodium falciparum 3D7 EF2.

Sequence of cGMP-dependent protein kinase (W7JX98 whole entry): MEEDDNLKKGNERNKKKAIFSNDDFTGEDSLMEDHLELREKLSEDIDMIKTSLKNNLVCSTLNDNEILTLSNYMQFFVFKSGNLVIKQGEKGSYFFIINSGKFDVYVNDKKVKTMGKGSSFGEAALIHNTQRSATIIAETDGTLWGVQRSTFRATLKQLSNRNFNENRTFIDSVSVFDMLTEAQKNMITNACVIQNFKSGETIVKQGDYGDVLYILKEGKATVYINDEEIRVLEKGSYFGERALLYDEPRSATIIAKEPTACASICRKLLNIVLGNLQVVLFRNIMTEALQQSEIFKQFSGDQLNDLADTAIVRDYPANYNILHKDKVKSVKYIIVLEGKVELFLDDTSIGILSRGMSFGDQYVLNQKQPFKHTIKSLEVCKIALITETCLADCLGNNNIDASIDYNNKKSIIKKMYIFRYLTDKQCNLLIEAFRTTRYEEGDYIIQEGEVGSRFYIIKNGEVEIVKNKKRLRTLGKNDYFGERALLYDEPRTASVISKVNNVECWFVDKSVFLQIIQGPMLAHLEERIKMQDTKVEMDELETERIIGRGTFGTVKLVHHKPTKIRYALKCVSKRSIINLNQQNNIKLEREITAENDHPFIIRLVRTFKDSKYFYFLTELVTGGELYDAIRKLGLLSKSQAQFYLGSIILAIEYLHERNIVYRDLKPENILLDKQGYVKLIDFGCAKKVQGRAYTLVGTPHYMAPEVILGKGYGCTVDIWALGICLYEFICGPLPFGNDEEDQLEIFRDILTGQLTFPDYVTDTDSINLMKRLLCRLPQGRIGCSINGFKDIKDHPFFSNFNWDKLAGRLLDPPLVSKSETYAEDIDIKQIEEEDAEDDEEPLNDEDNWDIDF
Sequence of Plasmepsin V (A0A0H4FQ60 whole entry): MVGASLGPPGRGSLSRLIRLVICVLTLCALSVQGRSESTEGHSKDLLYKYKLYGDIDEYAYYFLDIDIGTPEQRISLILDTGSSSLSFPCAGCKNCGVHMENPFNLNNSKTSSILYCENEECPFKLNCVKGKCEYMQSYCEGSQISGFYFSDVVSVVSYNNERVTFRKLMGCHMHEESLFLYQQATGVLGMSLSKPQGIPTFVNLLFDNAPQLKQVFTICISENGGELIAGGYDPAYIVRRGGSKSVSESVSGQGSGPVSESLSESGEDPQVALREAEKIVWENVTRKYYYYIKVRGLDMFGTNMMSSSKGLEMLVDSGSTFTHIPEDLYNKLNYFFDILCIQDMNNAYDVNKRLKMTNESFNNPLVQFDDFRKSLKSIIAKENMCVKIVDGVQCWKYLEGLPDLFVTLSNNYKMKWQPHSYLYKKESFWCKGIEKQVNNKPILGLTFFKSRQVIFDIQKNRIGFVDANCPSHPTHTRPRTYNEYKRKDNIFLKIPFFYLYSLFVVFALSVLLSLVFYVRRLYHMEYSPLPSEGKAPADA

`CN(C)Cc1ccn2c(-c3ccnc(NCC4CC4)n3)c(-c3ccc(F)c(NS(C)(=O)=O)c3)nc2c1`: the concentration for half-maximal inhibition (IC50) – broadly, the midpoint of a concentration-inhibition curve – in test [1] came to 0.16 nM.

For `CC(C)C[C@H](NC(=O)[C@@H](NC(=O)[C@H](CCONC(=N)N)NC(=O)OCc1ccccc1)C(C)C)[C@@H](O)CC(=O)NCCc1ccccc1`, the half-maximal inhibitory concentration (IC50) at Plasmepsin V stood at 0.2 nM.

Take `O=C(NCCN1CCCC1)c1cc(-c2ccc(CN3CCOCC3)cc2)nc2ccc(F)cc12` [CABAMIQUINE]: half-maximal inhibition in test [2] (IC50) was put at 2 nM.
